Reference: US10125097B2, “1- [1-(benzoyl)-pyrrolidine-2-carbonyl]-pyrrolidine-2-carbonitrile derivatives” (UNIVERSITAT DE BARCELONA, priority 2012, dated 2018)

Target: human prolyl oligopeptidase (Homo sapiens (Human), UniProt P48147)
Assay: POP inhibition assay (Z-G-P-AMC substrate, fluorimetric)
Format: biochemical
Conditions: 100 mM Na/K phosphate buffer, pH 8.0, hPOP 20 to 60 nM, Z-G-P-AMC, 1 hour at 37° C.; read-out: IC50, inhibition of human prolyl oligopeptidase
Protocol: Expression and Purification of Prolyl Oligopeptidase (POP)
POP was obtained by expression in E. coli and affinity purification using a His tail fusion according to a literature procedure (Tarragó T et al., ChemBioChem 2006; 7:827-33) summarized below:
hPOP expression: E. coli BL21 competent cells were transformed with pETM10 hPOP. To induce expression, a pre-culture of LB medium (50 mL) containing kanamycin (50 μg/mL) was inoculated with one colony and was grown overnight at 37° C. Next day, two cultures of LB medium (500 mL) were inoculated with the overnight culture (10 mL). The inoculated cultures were grown at 37° C. and 220 rpm until the OD595 was 1.2 (2.5-3 hours). IPTG was then added (final concentration of 1 mM) and induction was performed overnight at 25° C. Cells were harvested (3500 g, 15 min, 4° C.) and the pellet was suspended in suspension buffer (50 mL) [Tris-HCl pH 8 (50 mM), NaCl (300 mM), imidazole (1 mM)] and sonicated with use of four cycles (each consisting of 15 sec of sonication and 15 sec of rest) at an intensity of 50% and 0.5 pulses, the sample being kept on ice. After sonication, the sample was centrifuged (40 000 g, 30 min, 4° C.) and the supernatant was used immediately for POP purification. An ÁKTA explorer FPLC system was used for purification. The supernatant was applied at a flow of 1 mL/min to a HiTrapQuelating column (5 mL) previously equilibrated with 5 column volumes of suspension buffer. The column was washed with suspension buffer until the absorbance at 280 nm returned to basal level. The column was then rinsed with 5 volumes of washing buffer (50 mM Tris-HCl, pH 8, 300 mM NaCl, 30 mM imidazole). The elution was performed with 4 volumes of elution buffer (50 mM Tris-HCl, pH 8, 300 mM NaCl, 500 mM imidazole). Fractions (4 mL) were collected during the entire elution. POP activity was checked in all fractions and positive ones were analyzed by SDS-PAGE and stained with Biosafe Comassie Stain G-250. Positive fractions were collected and desalted by use of a HiPrep 26/10 Desalting column with Tris-HCl (50 mM, pH 8) as buffer. Recombinant hPOP was quantified with the Bio-Rad Protein Assay with BSA as standard. Aliquots of the recombinant enzyme were prepared and immediately frozen with liquid nitrogen and stored at −80° C.
POP activity was determined following the method described by Toide et al (Toide K et al., J. Pharmacol. Exp. Ther. 1995; 274:1370-8), using Z-G-P-AMC (N-benzyloxycarbonyl-Gly-Pro-methylcoumarinyl-7-amide) as POP substrate. The reactions were performed in 96-well microtiter plates, which allowed simultaneous monitoring of multiple reactions. For each reaction, activity buffer (134 μl, 100 mM Na/K phosphate buffer, pH 8.0) was pre-incubated for 15 min at 37° C. with hPOP (ranging from 20 to 60 nM, depending on the activity of the hPOP batch) and the corresponding new compound solution (3 μl). A stock solution of new compound was prepared in DMSO (100 mM), and dilutions were prepared from this stock solution with DMSO. Alternatively, the reactions were performed using another activity buffer (141 μL, 100 mM Tris-acetate, […], 1 mM DTT, pH 7.3), pre-incubating with hPOP (10 nM) and the corresponding new compound solution (3 μl) (Conditions B).
After preincubation, Z-G-P-AMC (10 μl, 3 mM in 40% 1,4-dioxane) was added (3 μl, 1.5 mM in 40% of 1,4-dioxane, in Conditions B), and the reaction was incubated for 1 hour at 37° C. The reaction was stopped by adding sodium acetate (150 μl, 1 M, pH 4) and the formation of AMC was measured fluorimetrically. The excitation and emission wavelengths were 360/40 and 485/20 nm, respectively.
Several concentration points (ranging from 25 μM to 400 μM) were measured for each compound. The inhibitory activity on prolyl oligopeptidase was calculated according to eq 1. For each new compound, the fluorescence in the presence (a) and in the absence of hPOP (b) was measured. […]

human prolyl oligopeptidase, sequence (P48147 whole entry): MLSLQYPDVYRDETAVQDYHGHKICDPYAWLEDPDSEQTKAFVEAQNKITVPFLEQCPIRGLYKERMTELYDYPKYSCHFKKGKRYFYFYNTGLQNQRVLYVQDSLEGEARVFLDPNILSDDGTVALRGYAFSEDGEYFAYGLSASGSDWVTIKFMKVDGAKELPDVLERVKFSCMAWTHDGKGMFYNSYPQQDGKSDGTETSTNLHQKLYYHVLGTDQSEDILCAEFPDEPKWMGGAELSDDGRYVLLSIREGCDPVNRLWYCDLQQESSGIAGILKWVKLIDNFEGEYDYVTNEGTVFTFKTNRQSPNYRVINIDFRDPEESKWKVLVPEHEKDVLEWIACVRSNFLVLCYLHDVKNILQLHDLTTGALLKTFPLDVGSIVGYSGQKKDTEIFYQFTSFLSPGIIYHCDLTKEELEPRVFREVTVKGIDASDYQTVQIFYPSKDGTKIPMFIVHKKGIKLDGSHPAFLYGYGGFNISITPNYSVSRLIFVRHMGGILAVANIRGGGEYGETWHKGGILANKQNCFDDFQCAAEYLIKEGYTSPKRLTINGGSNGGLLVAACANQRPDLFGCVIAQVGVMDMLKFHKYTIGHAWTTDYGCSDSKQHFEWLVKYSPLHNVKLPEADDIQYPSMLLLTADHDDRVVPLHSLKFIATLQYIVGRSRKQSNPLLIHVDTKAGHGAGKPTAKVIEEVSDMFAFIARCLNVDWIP

IC50: 48.7 nM
SMILES: COc1cc(C(=O)N2CC(F)(F)C[C@H]2C(=O)N2CCC[C@H]2C#N)cc(OC)c1OCc1ccccc1 [Example 4, (S)-1-((2S)-1-(4-(benzyloxy)-3,5-dimethoxybenzoyl)-4,4-difluoropyrrolidine-2-carbonyl)pyrrolidine-2-carbonitrile]
